From the NIST ThermoML archive (doi:10.1021/acs.jced.7b00971)

Legend:
[1] = 101 kPa, Liquid, Capillary tube (Ostwald / Ubbelohde) method
[2] = xn = mol fraction of the nth substance listed; conditions: 101 kPa, Liquid, Capillary tube (Ostwald / Ubbelohde) method

Cc1ccc(C)cc1 [1,4-dimethylbenzene]
[1]
Conditions	viscosity [mPa·s]
303.15 K	0.574
308.15 K	0.542
313.15 K	0.514
318.15 K	0.486
323.15 K	0.461

Cc1ccc(C)cc1 [1,4-dimethylbenzene] + CO
viscosity [mPa·s], [2]
Conditions	x2 = 0	x2 = 0.1001	x2 = 0.1998	x2 = 0.3015	x2 = 0.4005	x2 = 0.5	x2 = 0.5999	x2 = 0.7005	x2 = 0.8	x2 = 0.8984
303.15 K	0.574	0.559	0.556	0.563	0.567	0.573	0.576	0.577	0.568	0.549
308.15 K	0.542	0.527	0.524	0.527	0.529	0.533	0.536	0.536	0.529	0.512
313.15 K	0.514	0.498	0.494	0.496	0.498	0.501	0.504	0.502	0.495	0.479
318.15 K	0.486	0.469	0.465	0.466	0.467	0.469	0.469	0.469	0.462	0.447
323.15 K	0.461	0.445	0.439	0.44	0.44	0.443	0.443	0.441	0.434	0.42

CO [methanol]
[1]
Conditions	viscosity [mPa·s]
303.15 K	0.513
308.15 K	0.48
313.15 K	0.45
318.15 K	0.422
323.15 K	0.397

CO [methanol] + Cc1ccc(C)cc1
[2], x1 = 1
Conditions	viscosity [mPa·s]
303.15 K	0.513
308.15 K	0.48
313.15 K	0.45
318.15 K	0.422
323.15 K	0.397

CO [methanol] + Cc1cccc(C)c1
[2], x1 = 1
Conditions	viscosity [mPa·s]
303.15 K	0.513
308.15 K	0.48
313.15 K	0.45
318.15 K	0.422
323.15 K	0.397

CO [methanol] + Cc1ccccc1C
[2], x1 = 1
Conditions	viscosity [mPa·s]
303.15 K	0.513
308.15 K	0.48
313.15 K	0.45
318.15 K	0.422
323.15 K	0.397
